{"source": "PubChem BioAssay (NCI)", "test_in_all_cases": "inhibition of tumour cell growth, NCI panel, 48 h", "key": {"[1]": {"system": "MOLT-4 leukemia"}, "[2]": {"system": "EKVX NSCLC"}, "[3]": {"system": "A549 NSCLC"}, "[4]": {"system": "HCT-15 colon"}, "[5]": {"system": "786-0 renal"}, "[6]": {"system": "COLO 205 colon"}, "[7]": {"system": "U251 CNS"}, "[8]": {"system": "NCI-H460 lung"}, "[9]": {"system": "UACC-257 melanoma"}, "[10]": {"system": "ACHN renal"}}, "note": "“And” between values parts separate entries of the source, which are not always exact repeats. Equal entries are not always repeated.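 The compound was tested at five concentrations on cells cultured in 96-well plates, with a 48-hour exposure period. GI50 = concentration required for 50% inhibition of growth. TGI: total growth inhibition.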", "data": [{"smiles": "N#CCCN(c1ccc(-c2nnc(NC(=O)CNNC(=O)CC(=O)Nc3ccccc3)s2)cc1)S(=O)(=O)c1ccccc1", "values": [{"measurement": "TGI", "setting": "[1]", "result": "> 100", "unit": "µM"}, {"measurement": "TGI", "setting": "[2]", "result": "> 100", "unit": "µM"}, {"measurement": "TGI", "setting": "[3]", "result": "> 100", "unit": "µM"}, {"measurement": "TGI", "setting": "[4]", "result": "> 100", "unit": "µM"}, {"measurement": "TGI", "setting": "[5]", "result": "> 100", "unit": "µM"}, {"measurement": "TGI", "setting": "[6]", "result": "> 100", "unit": "µM"}, {"measurement": "TGI", "setting": "[7]", "result": "> 100", "unit": "µM"}, {"measurement": "TGI", "setting": "[8]", "result": "> 100", "unit": "µM"}, {"measurement": "TGI", "setting": "[9]", "result": "> 100", "unit": "µM"}, {"measurement": "TGI", "setting": "[10]", "result": "> 100", "unit": "µM"}]}, {"smiles": "O=[N+]([O-])c1nccn1COCCF", "values": [{"measurement": "TGI", "setting": "[1]", "result": "> 100", "unit": "µM"}, {"measurement": "TGI", "setting": "[2]", "result": "> 100", "unit": "µM"}, {"measurement": "TGI", "setting": "[3]", "result": "> 100", "unit": "µM"}, {"measurement": "TGI", "setting": "[4]", "result": "> 100", "unit": "µM"}, {"measurement": "TGI", "setting": "[5]", "result": "> 100", "unit": "µM"}, {"measurement": "TGI", "setting": "[6]", "result": "> 100", "unit": "µM"}, {"measurement": "TGI", "setting": "[7]", "result": "> 100", "unit": "µM"}, {"measurement": "TGI", "setting": "[8]", "result": "> 100", "unit": "µM"}, {"measurement": "TGI", "setting": "[9]", "result": "> 100", "unit": "µM"}, {"measurement": "TGI", "setting": "[10]", "result": "> 100", "unit": "µM"}]}, {"smiles": "COc1ccc([C@H]2CC(=O)NCCCCN2)cc1", "values": [{"measurement": "TGI", "setting": "[1]", "result": "> 100", "unit": "µM"}, {"measurement": "TGI", "setting": "[2]", "result": "> 100", "unit": "µM"}, {"measurement": "TGI", "setting": "[3]", "result": "> 100", "unit": "µM"}, {"measurement": "TGI", "setting": "[4]", "result": "> 100", "unit": "µM"}, {"measurement": "TGI", "setting": "[5]", "result": "> 100", "unit": "µM"}, {"measurement": "TGI", "setting": "[6]", "result": "> 100", "unit": "µM"}, {"measurement": "TGI", "setting": "[7]", "result": "> 100", "unit": "µM"}, {"measurement": "TGI", "setting": "[8]", "result": "> 100", "unit": "µM"}, {"measurement": "TGI", "setting": "[9]", "result": "> 100", "unit": "µM"}, {"measurement": "TGI", "setting": "[10]", "result": "> 100", "unit": "µM"}]}, {"smiles": "O=C1OC(O)C(Oc2ccc(Cl)cc2)=C1Cl", "note": "(centres undefined)", "values": [{"measurement": "TGI", "setting": "[1]", "result": "> 100", "unit": "µM"}, {"measurement": "TGI", "setting": "[2]", "result": "> 100", "unit": "µM"}, {"measurement": "TGI", "setting": "[3]", "result": "> 100", "unit": "µM"}, {"measurement": "TGI", "setting": "[4]", "result": "> 100", "unit": "µM"}, {"measurement": "TGI", "setting": "[5]", "result": "> 100", "unit": "µM"}, {"measurement": "TGI", "setting": "[6]", "result": "> 100", "unit": "µM"}, {"measurement": "TGI", "setting": "[7]", "result": "> 100", "unit": "µM"}, {"measurement": "TGI", "setting": "[8]", "result": "> 100", "unit": "µM"}, {"measurement": "TGI", "setting": "[9]", "result": "> 100", "unit": "µM"}, {"measurement": "TGI", "setting": "[10]", "result": "> 100", "unit": "µM"}]}, {"smiles": "CO[C@@H]1[C@H](OC(=O)NC(=O)CCl)CC[C@]2(CO2)[C@H]1[C@@]1(C)O[C@@H]1CC=C(C)C", "values": [{"measurement": "GI50", "setting": "[1]", "result": 3.31, "unit": "µM"}, {"measurement": "TGI", "setting": "[1]", "result": "28.2 µM and 8.2 µM"}, {"measurement": "GI50", "setting": "[2]", "result": 22.4, "unit": "µM"}, {"measurement": "TGI", "setting": "[2]", "result": "35.8 µM and 52.4 µM"}, {"measurement": "GI50", "setting": "[3]", "result": 4.25, "unit": "µM"}, {"measurement": "TGI", "setting": "[3]", "result": 44.2, "unit": "µM"}, {"measurement": "GI50", "setting": "[4]", "result": 5.15, "unit": "µM"}, {"measurement": "TGI", "setting": "[4]", "result": "56.1 µM and 35.7 µM"}, {"measurement": "TGI", "setting": "[5]", "result": "30 µM and 47.7 µM"}, {"measurement": "GI50", "setting": "[6]", "result": "9.44 µM and 2.54 µM"}, {"measurement": "TGI", "setting": "[6]", "result": "31.5 µM and 35.7 µM"}, {"measurement": "GI50", "setting": "[7]", "result": "4.98 µM and 0.575 µM"}, {"measurement": "TGI", "setting": "[7]", "result": "20.8 µM and 13.3 µM"}, {"measurement": "GI50", "setting": "[8]", "result": "0.755 µM and 2.6 µM"}, {"measurement": "TGI", "setting": "[8]", "result": "24.2 µM and 49.6 µM"}, {"measurement": "GI50", "setting": "[9]", "result": 8.41, "unit": "µM"}, {"measurement": "TGI", "setting": "[9]", "result": 28, "unit": "µM"}, {"measurement": "GI50", "setting": "[10]", "result": 7.3, "unit": "µM"}, {"measurement": "TGI", "setting": "[10]", "result": "30.8 µM and 37.5 µM"}]}, {"smiles": "C[C@@]12CCC(=O)C=C1CC[C@H]1C2=CC[C@]2(C)C1CC[C@@]2(C)O", "note": "(some centres undefined)", "values": [{"measurement": "TGI", "setting": "[1]", "result": "> 100", "unit": "µM"}, {"measurement": "TGI", "setting": "[2]", "result": "> 100", "unit": "µM"}, {"measurement": "TGI", "setting": "[3]", "result": "> 100", "unit": "µM"}, {"measurement": "TGI", "setting": "[4]", "result": "> 100", "unit": "µM"}, {"measurement": "TGI", "setting": "[5]", "result": "> 100", "unit": "µM"}, {"measurement": "TGI", "setting": "[6]", "result": "> 100", "unit": "µM"}, {"measurement": "TGI", "setting": "[7]", "result": "> 100", "unit": "µM"}, {"measurement": "TGI", "setting": "[8]", "result": "> 100", "unit": "µM"}, {"measurement": "TGI", "setting": "[9]", "result": "> 100", "unit": "µM"}, {"measurement": "TGI", "setting": "[10]", "result": "> 100", "unit": "µM"}]}, {"smiles": "C=C1C(=O)O[C@H]2[C@H]1CC/C(COC(=O)NCc1c[nH]c3ccc(Cl)cc13)=C\\CC[C@@]1(C)O[C@@H]21", "values": [{"measurement": "GI50", "setting": "[1]", "result": 1.34, "unit": "µM"}, {"measurement": "TGI", "setting": "[1]", "result": 4.91, "unit": "µM"}, {"measurement": "GI50", "setting": "[2]", "result": 1.58, "unit": "µM"}, {"measurement": "TGI", "setting": "[2]", "result": 3, "unit": "µM"}, {"measurement": "GI50", "setting": "[3]", "result": 1.7, "unit": "µM"}, {"measurement": "TGI", "setting": "[3]", "result": 3.43, "unit": "µM"}, {"measurement": "GI50", "setting": "[4]", "result": 0.615, "unit": "µM"}, {"measurement": "TGI", "setting": "[4]", "result": 1.95, "unit": "µM"}, {"measurement": "GI50", "setting": "[5]", "result": 1.07, "unit": "µM"}, {"measurement": "TGI", "setting": "[5]", "result": 2.49, "unit": "µM"}, {"measurement": "GI50", "setting": "[6]", "result": 1.19, "unit": "µM"}, {"measurement": "TGI", "setting": "[6]", "result": 2.69, "unit": "µM"}, {"measurement": "GI50", "setting": "[7]", "result": 1.66, "unit": "µM"}, {"measurement": "TGI", "setting": "[7]", "result": 3.08, "unit": "µM"}, {"measurement": "GI50", "setting": "[8]", "result": 1.96, "unit": "µM"}, {"measurement": "TGI", "setting": "[8]", "result": 3.96, "unit": "µM"}, {"measurement": "GI50", "setting": "[9]", "result": 1.63, "unit": "µM"}, {"measurement": "TGI", "setting": "[9]", "result": 3.11, "unit": "µM"}, {"measurement": "GI50", "setting": "[10]", "result": 1.33, "unit": "µM"}, {"measurement": "TGI", "setting": "[10]", "result": 2.61, "unit": "µM"}]}]}
